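Assay format: 96-well plates, 48-hour exposure. At the GI50, growth is halved.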 Calls of active or inactive are those of the source. No stated cut-off is given here; in the data, active = GI50 up to about 1.1 µM and inactive = higher.
Assays:
Assay in all cases: NCI-60 cell line screen, 48 h
[1] = test system: 786-0
[2] = test system: A549
[3] = test system: ACHN
[4] = test system: HCT-15
[5] = test system: K562
[6] = test system: LXFL 529
[7] = test system: Malme-3M
[8] = test system: NCI-H23
[9] = test system: OVCAR-4
[10] = test system: RPMI-8226
[11] = test system: SF-295
[12] = test system: SK-MEL-28
[13] = test system: SK-MEL-5
[14] = test system: SNB-19
[15] = test system: SNB-75
[16] = test system: SR
[17] = test system: HOP-92
[18] = test system: BT-549
[19] = test system: DU-145
[20] = test system: MCF7

Row | SMILES | GI50 [1] | GI50 [2] | GI50 [3] | GI50 [4] [µM] | GI50 [5] | GI50 [6] | GI50 [7] | GI50 [8] | GI50 [9] | GI50 [10] | GI50 [11] | GI50 [12] | GI50 [13] | GI50 [14] | GI50 [15] | GI50 [16] | GI50 [17] | GI50 [18] | GI50 [19] | GI50 [20]
1 | NC(=S)N/N=C(\C(=O)Nc1ccc(Cl)c(Cl)c1)C1=NN(c2ccccc2)C(c2cccc([N+](=O)[O-])c2)CC1=O (stereo not drawn) | 17.6 µM (inactive) | 75.2 µM (inactive) | 39.2 µM (inactive) | 30.8 | 17.9 µM (inactive) | 19.1 µM (inactive) | > 100 µM (inactive) | 21.5 µM (inactive) | 20 µM (inactive) | 3.37 µM (inactive) | 24.9 µM (inactive) | 52.5 µM (inactive) | > 100 µM (inactive) | 35.6 µM (inactive) | 26.5 µM (inactive) | 28.6 µM (inactive) | – | – | – | –
2 | O=C1CC[C@H]2CNC(=O)C[C@H]2C1 | > 100 µM (inactive) | > 100 µM (inactive) | – | > 100 | > 100 µM (inactive) | > 100 µM (inactive) | > 100 µM (inactive) | > 100 µM (inactive) | > 100 µM (inactive) | > 100 µM (inactive) | > 100 µM (inactive) | > 100 µM (inactive) | > 100 µM (inactive) | > 100 µM (inactive) | > 100 µM (inactive) | – | > 100 µM (inactive) | – | – | –
3 | Cc1cccc2c(=O)cc(-c3ccccc3)[nH]c12 | 4.78 µM (inactive) | 6.11 µM (inactive) | 12.2 µM (inactive) | 4.23 | 2 µM (inactive) | 4.61 µM (inactive) | 4.09 µM (inactive) | 4.91 µM (inactive) | 4.09 µM (inactive) | 5.4 µM (inactive) | 4.09 µM (inactive) | > 100 µM (inactive) | 2.36 µM (inactive) | 7.94 µM (inactive) | 1.73 µM (inactive) | 6.93 µM (inactive) | – | – | – | –
4 | COC(=O)/C(=N\Nc1nnc(C)n1N)C(C#N)c1ccc(Cl)cc1 (stereo not drawn) | 34.7 µM (inactive) | > 100 µM (inactive) | > 100 µM (inactive) | > 100 | – | > 100 µM (inactive) | > 100 µM (inactive) | > 100 µM (inactive) | > 100 µM (inactive) | > 100 µM (inactive) | > 100 µM (inactive) | > 100 µM (inactive) | – | > 100 µM (inactive) | > 100 µM (inactive) | – | > 100 µM (inactive) | – | – | –
5 | O=C1CC(Cl)c2c1csc2Br (stereo not drawn) | 7.91 µM (inactive) | 19 µM (inactive) | 15.6 µM (inactive) | 12.9 | 17.6 µM (inactive) | – | 15.7 µM (inactive) | 15.3 µM (inactive) | 25.9 µM (inactive) | 1.03 µM (active) | 23.7 µM (inactive) | 17.8 µM (inactive) | 16.9 µM (inactive) | 17.5 µM (inactive) | 19.8 µM (inactive) | 4.56 µM (inactive) | 21.5 µM (inactive) | 19.9 µM (inactive) | 29.4 µM (inactive) | 6.25 µM (inactive)
6 | Cc1cccc(/N=N/C(=N\NC(=O)c2cc(Cl)ccc2O)c2ccc(N(CCC#N)CCC#N)cc2C)c1 | 38.5 µM (inactive) | 26.5 µM (inactive) | 34.7 µM (inactive) | 27.7 | 33.3 µM (inactive) | – | 28.1 µM (inactive) | 32.7 µM (inactive) | 22.1 µM (inactive) | 14.9 µM (inactive) | 40.3 µM (inactive) | 42.9 µM (inactive) | 34 µM (inactive) | 35.1 µM (inactive) | 37.9 µM (inactive) | 22.8 µM (inactive) | 23.8 µM (inactive) | 24.2 µM (inactive) | 39.6 µM (inactive) | 32.2 µM (inactive)
7 | CC/C(Cl)=N\OC(=O)Nc1ccc(C#N)cc1 | 11.2 µM (inactive) | 18.2 µM (inactive) | 14.3 µM (inactive) | 7.93 | 1.86 µM (inactive) | – | 4.11 µM (inactive) | 17.2 µM (inactive) | 8.09 µM (inactive) | 2.28 µM (inactive) | 18.7 µM (inactive) | 18 µM (inactive) | 12.9 µM (inactive) | > 100 µM (inactive) | 14.9 µM (inactive) | 3.13 µM (inactive) | 3.15 µM (inactive) | 15.1 µM (inactive) | 16 µM (inactive) | 15.1 µM (inactive)
8 | Br/C(=N\N=c1/nn[nH][nH]1)c1ccncc1 | > 100 µM (inactive) | > 100 µM (inactive) | > 100 µM (inactive) | > 100 | > 100 µM (inactive) | – | > 100 µM (inactive) | > 100 µM (inactive) | > 100 µM (inactive) | > 100 µM (inactive) | > 100 µM (inactive) | > 100 µM (inactive) | > 100 µM (inactive) | > 100 µM (inactive) | > 100 µM (inactive) | > 100 µM (inactive) | > 100 µM (inactive) | > 100 µM (inactive) | > 100 µM (inactive) | > 100 µM (inactive)
9 | O=C1c2ccccc2OP(=O)(OCC(F)(F)F)OC1(C(F)(F)F)C(F)(F)F (stereo not drawn) | > 100 µM (inactive) | > 100 µM (inactive) | > 100 µM (inactive) | > 100 | > 100 µM (inactive) | > 100 µM (inactive) | – | > 100 µM (inactive) | > 100 µM (inactive) | > 100 µM (inactive) | > 100 µM (inactive) | > 100 µM (inactive) | > 100 µM (inactive) | > 100 µM (inactive) | > 100 µM (inactive) | > 100 µM (inactive) | > 100 µM (inactive) | – | – | –
10 | O=C(Nc1nc(C23CC4CC(CC(C4)C2)C3)cs1)c1cc2cc(Br)cc(Br)c2oc1=O | 32.9 µM (inactive) | 53 µM (inactive) | > 100 µM (inactive) | > 100 | 42.5 µM (inactive) | – | > 100 µM (inactive) | > 100 µM (inactive) | 58.1 µM (inactive) | 67.9 µM (inactive) | 40.6 µM (inactive) | > 100 µM (inactive) | > 100 µM (inactive) | 41.8 µM (inactive) | 26.9 µM (inactive) | 32.3 µM (inactive) | 46 µM (inactive) | > 100 µM (inactive) | 65.5 µM (inactive) | > 100 µM (inactive)
11 | CCOC(=O)c1c(SCCN2CCCC2)n(-c2ccccc2)c(=S)n(-c2ccccc2)c1=O | 1.55 µM (inactive) | 4.02 µM (inactive) | 1.72 µM (inactive) | 2.21 | 2.12 µM (inactive) | – | 1.56 µM (inactive) | 9.57 µM (inactive) | 13.1 µM (inactive) | 2.18 µM (inactive) | 28.3 µM (inactive) | 2.75 µM (inactive) | 3.07 µM (inactive) | 17.4 µM (inactive) | 6.93 µM (inactive) | 0.457 µM (active) | 1.6 µM (inactive) | 5.37 µM (inactive) | 1.68 µM (inactive) | 1.19 µM (inactive)
12 | COc1ccc(C(C#N)Cc2cc(OC)c(OC)c(OC)c2)cc1 (stereo not drawn) | 44.1 µM (inactive) | 30.6 µM (inactive) | 45.8 µM (inactive) | 17.8 | 4.99 µM (inactive) | 41.8 µM (inactive) | 43.1 µM (inactive) | – | 39.3 µM (inactive) | 23.4 µM (inactive) | 10.3 µM (inactive) | 54.8 µM (inactive) | 17.6 µM (inactive) | 54.2 µM (inactive) | – | – | 21.7 µM (inactive) | – | – | –
13 | N#CC(C(=O)/C(=N\Nc1nc(S)nn1N)C(C#N)c1ccc(Cl)cc1)c1ccc(Cl)cc1 (stereo not drawn) | > 100 µM (inactive) | > 100 µM (inactive) | > 100 µM (inactive) | > 100 | – | > 100 µM (inactive) | > 100 µM (inactive) | > 100 µM (inactive) | > 100 µM (inactive) | > 100 µM (inactive) | > 100 µM (inactive) | > 100 µM (inactive) | – | > 100 µM (inactive) | > 100 µM (inactive) | – | > 100 µM (inactive) | – | – | –
14 | Cc1ccc2nc(CC(=O)c3ccc4ccccc4c3)c(O)nc2c1 | > 100 µM (inactive) | > 100 µM (inactive) | > 100 µM (inactive) | > 100 | > 100 µM (inactive) | – | > 100 µM (inactive) | > 100 µM (inactive) | > 100 µM (inactive) | > 100 µM (inactive) | > 100 µM (inactive) | > 100 µM (inactive) | > 100 µM (inactive) | > 100 µM (inactive) | > 100 µM (inactive) | > 100 µM (inactive) | > 100 µM (inactive) | > 100 µM (inactive) | > 100 µM (inactive) | > 100 µM (inactive)
15 | c1ccc2c(c1)nc1n2CCCn2ccnc2-1 | > 100 µM (inactive) | > 100 µM (inactive) | 73.6 µM (inactive) | 41.1 | > 100 µM (inactive) | – | > 100 µM (inactive) | > 100 µM (inactive) | > 100 µM (inactive) | > 100 µM (inactive) | > 100 µM (inactive) | > 100 µM (inactive) | 87.3 µM (inactive) | > 100 µM (inactive) | > 100 µM (inactive) | > 100 µM (inactive) | > 100 µM (inactive) | > 100 µM (inactive) | > 100 µM (inactive) | > 100 µM (inactive)
16 | O=C1NC(=O)C2C(=O)NC(=O)C1C2(c1ccccc1)c1cc[nH]c1 (stereo not drawn) | > 100 µM (inactive) | > 100 µM (inactive) | > 100 µM (inactive) | > 100 | > 100 µM (inactive) | > 100 µM (inactive) | > 100 µM (inactive) | > 100 µM (inactive) | > 100 µM (inactive) | > 100 µM (inactive) | > 100 µM (inactive) | > 100 µM (inactive) | > 100 µM (inactive) | > 100 µM (inactive) | > 100 µM (inactive) | – | > 100 µM (inactive) | – | – | –
